Results reported in ChEMBL document CHEMBL3751745, “Aryl-imidazothiadiazole analogues as microtubule disrupting agents” (Medchemcomm, 2015).
Active and inactive are the calls of the source. The rule behind the calls is not given here.

Assays:
[1] = Cytotoxicity against human MIAPaCa2 cells assessed as cell viability after 48 hrs by SRB assay; assay type: functional, cell-based; conditions: MIA PaCa-2, 48 h
[2] = Cytotoxicity against human DU145 cells assessed as cell viability after 48 hrs by SRB assay; assay type: functional, cell-based; conditions: DU-145, 48 h
MCF7 = assay: Cytotoxicity against human MCF7 cells assessed as cell viability after 48 hrs by SRB assay; assay type: functional, cell-based; conditions: MCF7, 48 h
HeLa [3] = assay: Cytotoxicity against human HeLa cells assessed as cell viability after 48 hrs by SRB assay; assay type: functional, cell-based
Tubulin = Tubulin (Sus scrofa, UniProt P02554+P02550); assay: Inhibition of porcine brain tubulin polymerization by fluorescence based assay
HeLa [4] = assay: Induction of apoptosis in human HeLa cells assessed as activation of caspase-3 activity at 4 uM after 24 hrs by ELISA; assay type: functional
HeLa [5] = assay: Induction of apoptosis in human HeLa cells assessed as activation of caspase-3 activity at 2 uM after 24 hrs by ELISA; assay type: functional
Tubulin (Sus scrofa) = Tubulin (Sus scrofa) (UniProt P02554+P02550); assay: Inhibition of porcine brain tubulin polymerization at 5 uM by fluorescence based assay
Chain of Tubulin (Sus scrofa) (P02550 whole entry, looked up): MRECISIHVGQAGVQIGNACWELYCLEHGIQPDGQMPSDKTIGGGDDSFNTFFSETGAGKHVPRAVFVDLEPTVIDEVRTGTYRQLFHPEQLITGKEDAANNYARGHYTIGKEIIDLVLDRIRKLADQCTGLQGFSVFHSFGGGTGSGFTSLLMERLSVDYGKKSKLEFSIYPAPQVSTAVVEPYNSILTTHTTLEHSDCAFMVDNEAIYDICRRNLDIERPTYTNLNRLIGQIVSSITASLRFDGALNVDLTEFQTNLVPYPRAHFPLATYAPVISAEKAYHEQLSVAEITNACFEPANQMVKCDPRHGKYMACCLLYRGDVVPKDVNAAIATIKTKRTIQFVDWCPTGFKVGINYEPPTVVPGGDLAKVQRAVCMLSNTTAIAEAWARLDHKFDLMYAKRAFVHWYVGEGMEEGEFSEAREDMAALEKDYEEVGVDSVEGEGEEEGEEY
Chain of Tubulin (Sus scrofa) (P02554 whole entry, looked up): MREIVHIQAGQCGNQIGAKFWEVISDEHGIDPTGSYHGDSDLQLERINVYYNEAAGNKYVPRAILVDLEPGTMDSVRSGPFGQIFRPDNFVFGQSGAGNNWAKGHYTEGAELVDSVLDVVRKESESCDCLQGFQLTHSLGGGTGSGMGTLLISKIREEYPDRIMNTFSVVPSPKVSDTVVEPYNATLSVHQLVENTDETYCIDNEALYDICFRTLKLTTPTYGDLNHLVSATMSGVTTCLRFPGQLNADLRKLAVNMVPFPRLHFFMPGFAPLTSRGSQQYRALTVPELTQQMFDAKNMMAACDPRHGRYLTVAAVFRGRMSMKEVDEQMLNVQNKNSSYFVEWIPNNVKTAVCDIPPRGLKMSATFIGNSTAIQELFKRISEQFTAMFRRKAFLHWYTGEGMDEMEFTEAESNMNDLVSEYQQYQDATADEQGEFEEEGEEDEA

HeLa [6] = assay: Induction of apoptosis in human HeLa cells assessed as activation of cyclin B1 mRNA levels at 5 uM after 24 hrs by semi-quantitative RT-PCR; assay type: functional, cell-based
HeLa [7] = assay: Induction of cell cycle arrest in human HeLa cells assessed as cell arrest at accumulation at G2/M phase at 2 uM after 24 hrs by flow cytometric analysis (reference value: 25.49%); assay type: functional
HeLa [8] = assay: Induction of apoptosis in human HeLa cells assessed as induction of cyclin B1 levels at 5 uM after 24 hrs by Western blot analysis; assay type: functional, cell-based
HeLa [9] = assay: Disruption of microtubule organization in human HeLa cells at 5 uM after 24 hrs by DAPI-FITC staining based confocal microscopic analysis; assay type: functional, cell-based
HeLa [10] = assay: Induction of cell cycle arrest in human HeLa cells assessed as cell arrest at accumulation at G2/M phase at 5 uM after 24 hrs by flow cytometric analysis (reference value: 25.49%); assay type: functional
Tubulin (Homo sapiens) = Tubulin (Homo sapiens) (UniProt P68371+Q9H4B7+P0DPH7+P68366+Q13509+Q71U36+P04350+Q3ZCM7+P07437+P68363+Q9BQE3+Q6PEY2+Q13885+Q9BVA1+Q9BUF5); assay: Inhibition of colchicine binding to tubulin (unknown origin) assessed as decrease in tubulin-colchicine complex at 0 to 15 uM incubated for 1 hr by fluorescence based colchicine competitive binding assay; assay type: protein-complex assay

SMILES | IC50 [1] | IC50 [2] | IC50 (MCF7) | IC50 (HeLa [3]) | further results
CCc1nn2c(-c3ccc(OC)cc3)c(-c3cc(OC)c(OC)c(OC)c3)nc2s1 | 30.5 µM | 25.4 µM | 25.4 µM | 21.6 µM | 
COc1cc(-c2nc3sc(C4CC4)nn3c2-c2ccc(OC(F)(F)F)cc2)cc(OC)c1OC | 18.2 µM | 13 µM | 16.8 µM | 11.3 µM | 
CCc1nn2c(-c3cc(OC)c(OC)c(OC)c3)c(-c3cc(OC)c(OC)c(OC)c3)nc2s1 | 19.6 µM | 13.4 µM | 20.4 µM | 17.5 µM | 
COc1ccc(-c2c(-c3cc(OC)c(OC)c(OC)c3)nc3sc(C4CC4)nn23)cc1OC | 19.6 µM | 16.6 µM | 12.9 µM | 15.6 µM | 
COc1cc(-c2nc3sc(C4CC4)nn3c2-c2cc(OC)c(OC)c(OC)c2)cc(OC)c1OC | 39.6 µM | 52.1 µM | 36.5 µM | 13.7 µM | 
COc1cc(-c2nc3sc(C4CC4)nn3c2-c2ccc(N(C)C)cc2)cc(OC)c1OC | 2.5 µM | 3.45 µM | 3.4 µM | 2.9 µM | IC50 (Tubulin): 3.8 µM; fold change (FC) (HeLa [4]): 2.5; fold change (FC) (HeLa [5]): 2.5; inhibition (Tubulin (Sus scrofa)): 60.9%; Activity (HeLa [6]): Active; Activity (HeLa [7]): 57.66%; Activity (HeLa [8]): Active; Activity (HeLa [9]): Active; Activity (HeLa [10]): 72.5%
COc1cc(-c2nc3sc(C4CC4)nn3c2-c2ccc(C)cc2)cc(OC)c1OC | 29.8 µM | 18.5 µM | 26.1 µM | 20.5 µM | 
CCc1nn2c(-c3cc(F)cc(F)c3)c(-c3cc(OC)c(OC)c(OC)c3)nc2s1 | 30.6 µM | 21.6 µM | 36.4 µM | 26.4 µM | 
COc1cc(-c2nc3sc(C4CC4)nn3c2-c2ccc(F)c(Cl)c2)cc(OC)c1OC | 20.7 µM | 13.7 µM | 18.7 µM | 15.5 µM | 
CCc1nn2c(-c3ccc(F)c(Cl)c3)c(-c3cc(OC)c(OC)c(OC)c3)nc2s1 | 17.3 µM | 11.4 µM | 14.5 µM | 13.9 µM | 
CCc1nn2c(-c3ccc(OC(F)(F)F)cc3)c(-c3cc(OC)c(OC)c(OC)c3)nc2s1 | 16.4 µM | 23.5 µM | 14.8 µM | 13.4 µM | 
CCc1nn2c(-c3ccc4c(c3)OCO4)c(-c3cc(OC)c(OC)c(OC)c3)nc2s1 | 13.1 µM | 18.8 µM | 11.5 µM | 8.7 µM | 
COc1cc(F)ccc1-c1c(-c2cc(OC)c(OC)c(OC)c2)nc2sc(C3CC3)nn12 | 40.9 µM | 22.4 µM | 34.8 µM | 25.9 µM | 
CC(=O)O[C@H]1C(=O)[C@@]2(C)[C@H]([C@H](OC(=O)c3ccccc3)[C@]3(O)C[C@H](OC(=O)[C@H](O)[C@@H](NC(=O)c4ccccc4)c4ccccc4)C(C)=C1C3(C)C)[C@]1(OC(C)=O)CO[C@@H]1C[C@@H]2O |  |  |  |  | Activity (HeLa [6]): Active; inhibition (Tubulin (Homo sapiens)): inactive; Activity (HeLa [8]): Active
COc1cc(-c2nc3sc(C4CC4)nn3c2-c2ccc3ccccc3c2)cc(OC)c1OC | 21.6 µM | 45.2 µM | 15.3 µM | 19.4 µM | 
CCc1nn2c(-c3ccc(F)cc3OC)c(-c3cc(OC)c(OC)c(OC)c3)nc2s1 | 29.1 µM | 35.2 µM | 30.2 µM | 28.1 µM | 
COc1ccc(-c2c(-c3cc(OC)c(OC)c(OC)c3)nc3sc(C4CC4)nn23)cc1 | 16.9 µM | 10.5 µM | 11.6 µM | 14.6 µM | 
CCc1nn2c(-c3ccc(C(F)(F)F)cc3)c(-c3cc(OC)c(OC)c(OC)c3)nc2s1 | 14.8 µM | 18.3 µM | 11.8 µM | 10.5 µM | 

SMILES | IC50 [1] | IC50 [2] | IC50 (MCF7) | IC50 (HeLa [3]) | further results
CCc1ccc(-c2c(-c3cc(OC)c(OC)c(OC)c3)nc3sc(C4CC4)nn23)cc1 | 39.8 µM | 13.5 µM | 29.3 µM | 36.2 µM | 
COC(=O)Nc1nc2cc(C(=O)c3cccs3)ccc2[nH]1 |  |  |  |  | inhibition (Tubulin (Sus scrofa)): 79.2%
COc1cc(-c2nc3sc(C4CC4)nn3c2-c2ccc(F)cc2)cc(OC)c1OC | 27.6 µM | 15.1 µM | 19.6 µM | 15.6 µM | 
CCc1nn2c(-c3ccc(N(C)C)cc3)c(-c3cc(OC)c(OC)c(OC)c3)nc2s1 | 2.5 µM | 2.75 µM | 1.9 µM | 2.2 µM | IC50 (Tubulin): 3.1 µM; fold change (FC) (HeLa [4]): 2.5; fold change (FC) (HeLa [5]): 2.5; inhibition (Tubulin (Sus scrofa)): 66.8%; Activity (HeLa [6]): Active; Activity (HeLa [7]): 55.3%; Activity (HeLa [8]): Active; Activity (HeLa [9]): Active; Activity (HeLa [10]): 67.53%
COc1cc(-c2nc3sc(C4CC4)nn3c2-c2ccc(C(F)(F)F)cc2)cc(OC)c1OC | 23.4 µM | 15.2 µM | 18.4 µM | 43.5 µM | 
CCc1nn2c(-c3ccc(OC)c(OC)c3)c(-c3cc(OC)c(OC)c(OC)c3)nc2s1 | 14.6 µM | 13.3 µM | 11.4 µM | 14.6 µM | 
COc1cc(-c2nc3sc(C4CC4)nn3c2-c2ccc(Cl)cc2)cc(OC)c1OC | 17.4 µM | 11.6 µM | 22.9 µM | 19.2 µM | 
CCc1ccc(-c2c(-c3cc(OC)c(OC)c(OC)c3)nc3sc(CC)nn23)cc1 | 14.6 µM | 24.4 µM | 12.5 µM | 12.4 µM | 
CCc1nn2c(-c3ccc(Cl)cc3)c(-c3cc(OC)c(OC)c(OC)c3)nc2s1 | 15.4 µM | 19.1 µM | 12.2 µM | 13.7 µM | 
COc1cc(-c2nc3sc(C4CC4)nn3c2-c2ccccc2)cc(OC)c1OC | 31.5 µM | 25.6 µM | 42.3 µM | 35.4 µM | 
COc1cc(-c2nc3sc(C4CC4)nn3c2-c2ccc3c(c2)OCO3)cc(OC)c1OC | 19.4 µM | 12.8 µM | 25.6 µM | 16.8 µM | 
CCc1nn2c(-c3ccc4ccccc4c3)c(-c3cc(OC)c(OC)c(OC)c3)nc2s1 | 1.2 µM | 4.49 µM | 2.4 µM | 1.6 µM | IC50 (Tubulin): 1.7 µM; fold change (FC) (HeLa [4]): 2.5; fold change (FC) (HeLa [5]): 2.5; inhibition (Tubulin (Sus scrofa)): 75.1%; Activity (HeLa [6]): Active; Activity (HeLa [7]): 64.84%; inhibition (Tubulin (Homo sapiens)): Dose-dependent effect; Activity (HeLa [8]): Active; Activity (HeLa [9]): Active; Activity (HeLa [10]): 78.3%
CCc1nn2c(-c3ccc(C)cc3)c(-c3cc(OC)c(OC)c(OC)c3)nc2s1 | 20.4 µM | 21.7 µM | 16.7 µM | 14.8 µM | 
CCc1nn2c(-c3ccccc3)c(-c3cc(OC)c(OC)c(OC)c3)nc2s1 | 13.4 µM | 14.6 µM | 11.5 µM | 10.8 µM | 
COc1ccc(/C=C\c2cc(OC)c(OC)c(OC)c2)cc1O [COMBRETASTATIN A4] | 0.087 µM | 0.12 µM | 0.134 µM | 0.15 µM | fold change (FC) (HeLa [4]): 2.5; fold change (FC) (HeLa [5]): 2.5; Activity (HeLa [6]): Active; Activity (HeLa [8]): Active; Activity (HeLa [9]): Active; Activity (HeLa [10]): 83.95%
CCc1nn2c(-c3ccc(F)cc3)c(-c3cc(OC)c(OC)c(OC)c3)nc2s1 | 10.5 µM | 16.6 µM | 9.8 µM | 11.3 µM | 
COc1cc(-c2nc3sc(C4CC4)nn3c2-c2cc(F)cc(F)c2)cc(OC)c1OC | 29.6 µM | 16.9 µM | 23.4 µM | 17.3 µM | 
